Converted amounts (≈) assume the structure as drawn. Where two headings read alike, the source gives them in different places.
Legend:
c-Met = target: T1, c-Met (Homo sapiens, UniProt P08581); assay: GTL-16 c-Met autophosphorylation measured by AlphaScreen detection; assay type: cell-based; details: GTL-16 cells, 1 h incubation, AlphaScreen p-c-Met; read-out: GTL-16 IC50 c-Met phosphorylation
T1 construct: adapted to measure the phosphorylation of endogenous cellular proteins in cell lysates; endogenous in cells; host or cells: GTL-16
How it was run: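 GTL-16 MET-amplified gastric cancer cells, serum-free DMEM with 0.1% BSA, exposed to 8-point compound dilutions for 1 h at 37° C (0.11% DMSO final). Lysates probed for phospho-c-Met by AlphaScreen using anti-c-Met antibody, biotinylated PY20 phosphotyrosine antibody, Protein A acceptor and streptavidin donor beads.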

[1] = Solubility assay at pH 7 and in FaSSIF; assay type: physicochemical; details: thermodynamic from solid
Description: A number of compounds of the present invention were assayed in a solubility assay at pH 7 and in fasted state simulated intestinal fluid (FaSSIF).
Solubility of the compounds was determined by suspending about 0.3 to 1.0 mg of drug substance in 0.1 mL of phosphate buffer at pH 7 and respectively FaSSIF.
Buffer pH 7 was obtained from MERCK as Tritisol® Phosphate Buffer. The Medium to Simulate the Fasted State Upper Small Intestine (Fasted State Simulated Intestinal Fluid) or FaSSIF was developed according to J. Dressmann publication Jantratid Ekarat; Janssen Niels; Reppas Christos; Dressman Jennifer B Dissolution media simulating conditions in the proximal human gastrointestinal tract: an update. Pharmaceutical research (2008), 25(7), 1663-76.
Composition from the FaSSIF is described in the following Table 3.
The suspensions or solutions were stirred over night at room temperature. After separation of the un-dissolved part by filtration (centrifugation using 0.45 μm PVDF or PTFE filters), the solutions were if necessary, diluted with acetonitrile to obtain concentrations below 1.0 mg/mL prior to UPLC analysis. Samples were then analyzed by UPLC to get the concentrations level of compound in the different media. Prior to analysis a method has been developed for each compound with an according calibration.
UPLC parameters: Column Aquity50*2.1 mm C18 1.7ym; Column temperature: 40° C.; mobile phase A: water MilliQ+0.1% TFA and B acetonitrile, gradient grade, +0.1% TFA.

[2] = FaSSIF (fasted state simulated intestinal fluid), fassif, fasted state simulated intestinal fluid, stirred over night at room temperature, read-out: Solubility FaSSIF
[3] = aqueous buffer, phosphate buffer pH 7, stirred over night at room temperature, read-out: Solubility Buffer pH 7

T1 sequence (P08581 25-1390): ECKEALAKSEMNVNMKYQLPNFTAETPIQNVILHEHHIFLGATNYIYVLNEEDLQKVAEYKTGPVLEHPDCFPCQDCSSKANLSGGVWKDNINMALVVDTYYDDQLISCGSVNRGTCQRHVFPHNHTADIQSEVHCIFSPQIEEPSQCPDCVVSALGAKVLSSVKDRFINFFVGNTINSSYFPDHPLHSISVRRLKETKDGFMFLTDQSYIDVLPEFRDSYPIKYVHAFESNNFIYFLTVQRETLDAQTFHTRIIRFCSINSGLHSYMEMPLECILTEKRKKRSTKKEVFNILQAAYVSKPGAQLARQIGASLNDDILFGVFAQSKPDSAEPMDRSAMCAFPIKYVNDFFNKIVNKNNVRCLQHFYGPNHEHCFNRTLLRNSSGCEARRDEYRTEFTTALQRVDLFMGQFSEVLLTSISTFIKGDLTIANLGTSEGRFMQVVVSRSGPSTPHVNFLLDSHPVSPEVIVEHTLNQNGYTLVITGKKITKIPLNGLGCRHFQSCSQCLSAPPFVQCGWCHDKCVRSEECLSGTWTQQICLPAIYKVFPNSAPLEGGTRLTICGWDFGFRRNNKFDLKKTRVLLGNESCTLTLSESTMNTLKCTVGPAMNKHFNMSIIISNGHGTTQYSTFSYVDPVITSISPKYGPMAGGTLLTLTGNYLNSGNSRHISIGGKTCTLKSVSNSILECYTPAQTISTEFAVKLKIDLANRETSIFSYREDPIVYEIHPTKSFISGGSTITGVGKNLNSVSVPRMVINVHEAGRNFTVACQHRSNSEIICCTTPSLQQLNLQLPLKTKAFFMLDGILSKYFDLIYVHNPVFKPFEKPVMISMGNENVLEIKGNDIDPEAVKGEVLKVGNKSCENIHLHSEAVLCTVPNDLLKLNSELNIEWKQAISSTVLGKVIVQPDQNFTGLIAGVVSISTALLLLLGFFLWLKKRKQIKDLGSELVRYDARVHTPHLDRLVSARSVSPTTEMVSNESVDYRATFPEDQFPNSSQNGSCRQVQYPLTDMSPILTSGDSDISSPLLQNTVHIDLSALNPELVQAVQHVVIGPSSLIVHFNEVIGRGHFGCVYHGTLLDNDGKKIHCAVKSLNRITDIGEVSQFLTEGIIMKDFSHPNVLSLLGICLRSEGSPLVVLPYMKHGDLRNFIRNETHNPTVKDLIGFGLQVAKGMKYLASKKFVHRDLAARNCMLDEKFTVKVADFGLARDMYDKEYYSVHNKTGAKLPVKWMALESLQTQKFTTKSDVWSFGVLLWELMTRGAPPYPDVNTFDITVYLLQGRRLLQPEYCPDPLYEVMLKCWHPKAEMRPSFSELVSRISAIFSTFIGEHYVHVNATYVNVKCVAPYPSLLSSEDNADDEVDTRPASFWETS

Compound | IC50 (c-Met) | solubility [1, 2] | solubility [1, 3]
C[C@@H](c1c(F)cc2ncccc2c1F)c1cnc2ccc(N3CCNC(=O)C3)nn12 (single isomer, unassigned) [Example 5] | < 3 nM | 164 µg/mL (≈ 402 µM) | 91 µg/mL (≈ 223 µM)
C[C@@H](c1c(F)cc2ncccc2c1F)c1cnc2ccc(N3CCN(C)C(=O)C3)nn12 [Example 2, 4-{3-[(S)-1-(5,7-Difluoro-quinolin-6-yl)-ethyl]-imidazo[1,2-b]pyridazin-6-yl}-1-methyl-piperazin-2-one] | 2.7 nM | 289 µg/mL (≈ 684 µM) | 29 µg/mL (≈ 68.6 µM)
C[C@@H](c1c(F)cc2ncccc2c1F)c1cnc2ccc(N3CCNCC3)nn12 [Example 7, 5,7-Difluoro-6-[(S)-1-(6-piperazin-1-yl-imidazo[1,2-b]pyridazin-3-yl)-ethyl]-quinoline] | 2.1 nM | 172 µg/mL (≈ 436 µM) | 248 µg/mL (≈ 629 µM)
CC(=O)N1CCN(c2ccc3ncc([C@@H](C)c4c(F)cc5ncccc5c4F)n3n2)CC1 [Example 11, 1-(4-{3-[(S)-1-(5,7-Difluoro-quinolin-6-yl)-ethyl]-imidazo[1,2-b]pyridazin-6-yl}-piperazin-1-yl)ethanone] | 4.4 nM | 1350 µg/mL (≈ 3100 µM) | 32 µg/mL (≈ 73.3 µM)
C[C@@H](c1cc2cnn(C)c2cc1F)c1cnc2ccc(N3CCNC(=O)C3)nn12 [Example 28, 4-{3-[(S)-1-(6-Fluoro-1-methyl-1H-indazol-5-yl)-ethyl]-imidazo[1,2-b]pyridazin-6-yl}-piperazin-2-one] | 11 nM | 374 µg/mL (≈ 951 µM) | 117 µg/mL (≈ 297 µM)
